# In PMC11672724, “Antiparasitic Activities of Acyl Hydrazones from Cinnamaldehydes and Structurally Related Fragrances” (Antibiotics, 2024):
# Assays:
# Vero monkey kidney cells = test: Vero cell cytotoxicity (MTT assay, 72 h); assay type: cell-based; details: Primates, IC50 ± SD
# Protocol: To assess the test compounds’ cytotoxicity, MTT assays were performed. The Vero cells and macrophages were cultivated for 24 h at 37 °C in RPMI 1640 media with 10% FBS and 5% CO2 in 96-well plates (5 × 10^3 cells/well/200 μL). Following a washing step with PBS, the cells were treated with test compounds at different concentrations (50, 25, 12.5, 6.25, 3.13, 1.65, and 0.75 μg /mL) in 10% FBS medium for 72 h. Negative control cells were only given media with 2% FBS and 1% DMSO. The cells were cultured for 4 h after the supernatant was disposed of, and 50 μL of RPMI 1640 media containing 14 μL MTT (5 mg/mL) was added. After removing the supernatant once again, 150 μL of DMSO was added. IC50 values were determined from three independent experiments.
# L. major promastigotes = test: Leishmania major promastigote assay (MTT, 72 h); assay type: cell-based
# Protocol: (§1) Promastigotes of L. major were obtained from a patient (February 2016) and cultured at 26 °C in Schneider’s Drosophila medium (Invitrogen, Carlsbad, CA, USA) supplemented with 10% heat-inactivated fetal bovine serum (FBS, Invitrogen, USA) and antibiotics, with weekly transfers in a tissue culture flask. Promastigotes were cryopreserved in liquid nitrogen at a concentration of 3 × 10^6 parasites/mL. Virulent L. major parasites were maintained by serial passage in female BALB/c mice, achieved by injecting hind footpads with 1 × 10^6 stationary-phase promastigotes. Amastigotes were isolated from the mice after 8 weeks, then converted to promastigotes by cultivation at 26 °C in Schneider’s medium containing 10% FBS and antibiotics. Amastigote-derived promastigotes, which underwent several in vitro passages, were used for the infection studies. BALB/c mice (both male and female) were provided by the Pharmaceutical College, King Saud University, Kingdom of Saudi Arabia, and housed in specific pathogen-free conditions following the ethical guidelines of the Qassim University Research Ethics Committee (permission number: 20-03-20).
# L. major promastigotes in the logarithmic phase were cultured in phenol-red-free RPMI 1640 medium (Invitrogen, USA) with 10% FBS in 96-well plates at 10^6 cells/mL (200 μL/well, counted with a hemocytometer). Test compounds were added at final concentrations of 50, 25, 12.5, 6.25, 3.13, 1.65, and 0.75 μg/mL. […] After incubation at 26 °C for 72 h, viable promastigotes were counted using an MTT colorimetric assay. The formed formazan was dissolved in a detergent and the absorbance was measured at 570 nm using an ELISA reader. IC50 values were derived from three independent experiments.
# L. major amastigotes = test: Leishmania major amastigotes in peritoneal macrophages (percentage of infected macrophages, 72 h); assay type: cell-based; details: Macrophage, IC50 ± SD
# Protocol: as §1
# Activity against amastigotes in macrophages was evaluated using peritoneal macrophages, which were harvested from 6–8-week-old BALB/c mice of different sex, and plated at 5 × 10^4 cells/well in 96-well plates containing phenol-red-free RPMI 1640 medium with 10% FBS. After 4 h at 37 °C and 5% CO2 to promote adhesion, cells were washed with PBS, and 200 μL of an L. major promastigote solution (10 promastigotes per macrophage) was added. Plates were incubated for 24 h at 37 °C in a 5% CO2 environment to allow infection and amastigote differentiation. Infected cells were then washed with PBS and overlaid with RPMI 1640 medium containing the test compounds at the same concentrations as applied for the experiments with promastigotes, followed by incubation at 37 °C and 5% CO2 for 72 h. […] IC50 values were calculated from three independent experiments.
# macrophages = test: Macrophage cytotoxicity (MTT assay, 72 h); assay type: cell-based, BALB/c mice; details: Mus musculus, IC50 ± SD
# Protocol: Plates were incubated for 24 h at 37 °C in a 5% CO2 environment to allow infection and amastigote differentiation. Infected cells were then washed with PBS and overlaid with RPMI 1640 medium containing the test compounds at the same concentrations as applied for the experiments with promastigotes, followed by incubation at 37 °C and 5% CO2 for 72 h. […] The percentage of infected macrophages was determined microscopically after fixation, Giemsa staining, and medium removal. IC50 values were calculated from three independent experiments. To assess the test compounds’ cytotoxicity, MTT assays were performed. […] Negative control cells were only given media with 2% FBS and 1% DMSO. The cells were cultured for 4 h after the supernatant was disposed of, and 50 μL of RPMI 1640 media containing 14 μL MTT (5 mg/mL) was added. After removing the supernatant once again, 150 μL of DMSO was added. IC50 values were determined from three independent experiments.
# [1] = test system: T. gondii RH strain tachyzoites; test: Toxoplasma gondii cells drug testing assay (infection index in Vero cells, 72 h); assay type: cell-based; details: for IC50: Toxoplasma gondii, Vero, IC50 ± SD, three independent experiments, 72 h; for SI = selectivity index (Vero/T. gondii): ratio IC50 Vero / IC50 T. gondii
# Protocol: Cells of the Vero cell line (ATCC® CCL81™, Manassas, VA, USA) were used to cultivate T. gondii RH strain tachyzoites. Vero cells were maintained in complete RPMI 1640 medium (Thermo Fisher Scientific, Waltham, MA, USA). For cell cultivation, 96-well plates were prepared with 5 × 10^3 cells per well in 200 μL of RPMI 1640 medium, then incubated at 37 °C and 5% CO2 for 24 h. The medium was then removed, and cells were washed with phosphate-buffered saline (PBS). Next, RPMI 1640 medium with 2% FBS and parasites at a 5:1 parasite-to-cell ratio were added. After a 5 h incubation at 37 °C and 5% CO2, cells were washed with PBS and subjected to further treatments. […] After incubation at 37 °C and 5% CO2 for 72 h, cells were washed with PBS, fixed in 10% formalin, and stained with 1% toluidine blue. An inverted photomicroscope was used to assess cell infection and to determine the infection index (number of infected cells out of 200 counted cells). The inhibition percentage was calculated as follows:Inhibition (%) = [(I Control − I Experimental)/I Control] × 100 where “I Control” represents the infection index of untreated cells, and “I Experimental” represents the infection index of cells treated with test compounds. The effects of the compounds on parasite growth are expressed as IC50 values derived from three independent experiments.
# [2] = Leishmania major, 72 h, IC50 ± SD, MTT
# [3] = ratio IC50 macrophages / IC50 promastigotes
# [4] = verbal statement in text on the L. major experiments
SMILES,IC50 (L. major promastigotes; [2]) [µM],IC50 (L. major amastigotes) [µM],"IC50 (L. major promastigotes; IC50 ± SD, MTT, 72 h) [µM]",IC50 (Vero monkey kidney cells) [µM],SI (promastigotes) = selectivity index (macrophages/L. major promastigotes) (L. major promastigotes; [3]),activity against L. major promastigotes (in words) (L. major promastigotes; [4]),IC50 (macrophages) [µM],IC50 [1] [µM],SI = selectivity index (Vero/T. gondii) [1],"IC50 (L. major promastigotes; Leishmania major; IC50 ± SD, MTT, 72 h) [µM]",activity against T. gondii (in words) [1]
O=C(N/N=C/C=C/c1ccccc1)c1cc2ccccc2cc1O [Compound 2a],16.8 ± 2.8,> 41.7,,7.3 ± 0.9,>2.5,moderate activity,> 41.7,0.63 ± 0.08,11.5,,
O=C(N/N=C/C=C/c1ccccc1)c1ccncc1 [Compound 2l],51.3 ± 9.3,> 52.5,,51.3 ± 7.8,>1.0,,> 52.5,52.1 ± 8.3,0.99,,
O=C(N/N=C/C=C/c1ccccc1)c1ccccc1F [Compound 2g],> 74.6,> 74.6,,> 74.6,,,> 74.6,69.4 ± 10,,,
"O=C/C=C/c1ccccc1 [Cinnamaldehyde, (2E)-3-phenylprop-2-enal]",,> 151,,> 151,,,> 151,> 151,,> 151,inactive
"CN(C)c1ccc(/C=C/C=N/NC(=O)c2ccccc2O)cc1 [Compound 2d, (E)-N′-(4-Dimethylaminocinnamylidene)-2-hydroxybenzoylhydrazide]",> 42.7,> 42.7,,22 ± 3,,,> 42.7,3.9 ± 0.5,5.7,,reasonable activity
"CC(C)Cc1ccc(CC(C)/C=N/NC(=O)c2cccc(F)c2)cc1 (stereo not drawn) [Compound 3e, N′-2-Methyl-3-[4-(2-methylpropyl)phenyl]propanylidene-3-fluorobenzoylhydrazide]",> 58.8,> 58.8,,53.5 ± 8.5,,,> 58.8,45.3 ± 6.9,1.2,,
CN(C)c1ccc(/C=C/C=N/NC(=O)c2cc3ccccc3cc2O)cc1 [Compound 2b],> 36.7,> 36.7,,24.2 ± 2.7,,,> 36.7,23.4 ± 3.9,1.0,,
CN(C)c1ccc(/C=C/C=N/NC(=O)c2ccncc2)cc1 [Compound 2m],> 44.8,> 44.8,,41.5 ± 7.2,,,> 44.8,31.6 ± 6.2,1.3,,
"C(=C\c1ccccc1)/C=N/Nc1ccccc1 [CPH, Cinnamaldehyde phenyl hydrazone, reference compound]",83.7 ± 13.6,,,23.6 ± 3.9,0.94,,78.4 ± 12.2,12.9 ± 2.1,1.8,,
"CC(C)Cc1ccc(CC(C)/C=N/NC(=O)c2cc3ccccc3cc2O)cc1 (stereo not drawn) [Compound 3a, N′-2-Methyl-3-[4-(2-methylpropyl)phenyl]propanylidene-3-hydroxy-2-naphthoic hydrazide]",> 51.5,> 51.5,,41.3 ± 6.9,,,> 51.5,46.9 ± 8.4,0.88,,
"CC(C)c1cccc(C(C)CC=O)c1 (stereo not drawn) [Florhydral^TM, 3-(3-isopropylphenyl)butanal, reference compound]",> 105,> 105,,99.1 ± 18.4,,,> 105,> 105,,,
O=C(N/N=C/C=C/c1ccccc1)c1ccccc1O [Compound 2c],47.7 ± 6.5,> 49.6,,19.5 ± 2.6,0.91,,43.6 ± 8.6,1.1 ± 0.2,17.3,,
"CC(C)Cc1ccc(CC(C)C=O)cc1 (stereo not drawn) [Silvial^TM, 2-methyl-3-[4-(2-methylpropyl)phenyl]propanal, reference compound]",> 97.9,> 97.9,,> 97.9,,,> 97.9,90.1 ± 15.2,,,

# Now from value to compound, other results behind:
IC50 (L. major promastigotes; [2]) [µM],IC50 (L. major amastigotes) [µM],"IC50 (L. major promastigotes; IC50 ± SD, MTT, 72 h) [µM]",SMILES,IC50 (Vero monkey kidney cells) [µM],SI (promastigotes) = selectivity index (macrophages/L. major promastigotes) (L. major promastigotes; [3]),activity against L. major promastigotes (in words) (L. major promastigotes; [4]),IC50 (macrophages) [µM],IC50 [1] [µM],SI = selectivity index (Vero/T. gondii) [1],"IC50 (L. major promastigotes; Leishmania major; IC50 ± SD, MTT, 72 h) [µM]",activity against T. gondii (in words) [1]
39.5 ± 5.9,45.4 ± 7.9,,"CC(C)c1cccc(C(C)C/C=N/NC(=O)c2ccccc2O)c1 (stereo not drawn) [Compound 4b, N′-3-(3-Isopropylphenyl)butanylidene-2-hydroxybenzoylhydrazide]",19.2 ± 2.2,1.3,,50.3 ± 9.4,21 ± 3.5,0.92,,
54.6 ± 9,> 64.6,,"CC(C)c1cccc(C(C)C/C=N/NC(=O)c2ccncc2)c1 (stereo not drawn) [Compound 4g, N′-3-(3-Isopropylphenyl)butanylidene-isonicotinoylhydrazide]",> 64.6,>1.2,,> 64.6,> 64.6,,,
< 10,> 53.4,9.6 ± 2.4,"CC(C)c1cccc(C(C)CC=NNC(=O)c2cc3ccccc3cc2O)c1 (stereo not drawn) [Compound 4a, N′-3-(3-Isopropylphenyl)butanylidene-3-hydroxy-2-naphthoic hydrazide]",39.6 ± 4.8,,moderate activity,> 53.4,14.4 ± 2.1,2.8,,
< 30,> 58.3,27.9 ± 4.2,"CC(C)c1cccc(C(C)C/C=N/NC(=O)c2cccc(Cl)c2)c1 (stereo not drawn) [Compound 4f, N′-3-(3-Isopropylphenyl)butanylidene-3-chlorobenzoylhydrazide]",57.9 ± 11,>2.1,,> 58.3,47.5 ± 7.3,1.2,,
> 61.3,> 61.3,,"CC(C)c1cccc(C(C)C/C=N/NC(=O)c2ccccc2F)c1 (stereo not drawn) [Compound 4d, N′-3-(3-Isopropylphenyl)butanylidene-2-fluorobenzoylhydrazide]",> 61.3,,,> 61.3,> 61.3,,,
